{"source": "paper PMC8217340", "about": "(Phytotherapy research : PTR, 2021)", "key": {"human OATP1B3 [1]": {"molecular_target": "T1, human OATP1B3 (Homo sapiens, UniProt Q9NPD5)", "T1 sequence (Q9NPD5 1-702)": "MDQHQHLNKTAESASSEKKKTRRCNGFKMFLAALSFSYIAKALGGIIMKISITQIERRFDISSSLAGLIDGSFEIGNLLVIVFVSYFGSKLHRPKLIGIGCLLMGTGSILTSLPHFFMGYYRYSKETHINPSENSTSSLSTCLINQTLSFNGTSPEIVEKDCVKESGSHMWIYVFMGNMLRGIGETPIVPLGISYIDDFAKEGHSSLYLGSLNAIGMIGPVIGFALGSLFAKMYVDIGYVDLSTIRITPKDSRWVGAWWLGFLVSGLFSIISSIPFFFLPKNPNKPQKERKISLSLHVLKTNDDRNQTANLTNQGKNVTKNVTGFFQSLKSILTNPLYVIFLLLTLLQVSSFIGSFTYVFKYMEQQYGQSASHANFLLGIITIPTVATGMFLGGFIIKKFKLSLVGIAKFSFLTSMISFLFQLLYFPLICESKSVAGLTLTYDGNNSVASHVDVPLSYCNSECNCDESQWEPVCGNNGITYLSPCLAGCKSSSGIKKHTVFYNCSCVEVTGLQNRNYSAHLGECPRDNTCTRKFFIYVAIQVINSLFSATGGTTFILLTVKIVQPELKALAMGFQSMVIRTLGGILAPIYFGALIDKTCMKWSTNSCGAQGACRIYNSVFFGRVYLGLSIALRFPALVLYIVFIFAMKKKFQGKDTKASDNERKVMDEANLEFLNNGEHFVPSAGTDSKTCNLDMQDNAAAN", "format": "cell-based", "details": "5 μM flavonolignan, 5 minutes; uptake minus wild-type CHO cells"}, "human OATP1B1 [2]": {"molecular_target": "T2, human OATP1B1 (Homo sapiens, UniProt Q9Y6L6)", "T2 sequence (Q9Y6L6 1-691)": "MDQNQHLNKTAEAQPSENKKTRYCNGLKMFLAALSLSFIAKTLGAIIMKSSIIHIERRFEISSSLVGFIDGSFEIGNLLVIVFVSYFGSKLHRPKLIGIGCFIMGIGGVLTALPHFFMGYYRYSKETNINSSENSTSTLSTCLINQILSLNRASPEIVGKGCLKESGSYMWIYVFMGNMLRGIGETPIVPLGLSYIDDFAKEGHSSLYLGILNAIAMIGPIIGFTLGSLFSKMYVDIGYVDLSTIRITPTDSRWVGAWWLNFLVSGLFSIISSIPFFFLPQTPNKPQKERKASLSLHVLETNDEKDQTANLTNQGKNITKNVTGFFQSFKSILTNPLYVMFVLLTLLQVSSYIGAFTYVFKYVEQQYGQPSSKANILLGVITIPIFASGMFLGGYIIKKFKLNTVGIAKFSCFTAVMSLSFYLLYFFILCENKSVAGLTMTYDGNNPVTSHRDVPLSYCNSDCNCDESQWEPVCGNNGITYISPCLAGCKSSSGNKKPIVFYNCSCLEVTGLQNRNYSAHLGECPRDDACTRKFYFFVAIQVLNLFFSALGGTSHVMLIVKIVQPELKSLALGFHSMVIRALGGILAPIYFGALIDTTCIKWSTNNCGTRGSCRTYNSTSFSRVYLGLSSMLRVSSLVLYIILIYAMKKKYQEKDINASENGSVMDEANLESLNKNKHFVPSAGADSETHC", "format": "cell-based", "details": "5 μM flavonolignan, 5 minutes; uptake minus wild-type CHO cells"}, "human OATP2B1": {"molecular_target": "T3, human OATP2B1 (Homo sapiens, UniProt O94956)", "T3 sequence (O94956 1-709)": "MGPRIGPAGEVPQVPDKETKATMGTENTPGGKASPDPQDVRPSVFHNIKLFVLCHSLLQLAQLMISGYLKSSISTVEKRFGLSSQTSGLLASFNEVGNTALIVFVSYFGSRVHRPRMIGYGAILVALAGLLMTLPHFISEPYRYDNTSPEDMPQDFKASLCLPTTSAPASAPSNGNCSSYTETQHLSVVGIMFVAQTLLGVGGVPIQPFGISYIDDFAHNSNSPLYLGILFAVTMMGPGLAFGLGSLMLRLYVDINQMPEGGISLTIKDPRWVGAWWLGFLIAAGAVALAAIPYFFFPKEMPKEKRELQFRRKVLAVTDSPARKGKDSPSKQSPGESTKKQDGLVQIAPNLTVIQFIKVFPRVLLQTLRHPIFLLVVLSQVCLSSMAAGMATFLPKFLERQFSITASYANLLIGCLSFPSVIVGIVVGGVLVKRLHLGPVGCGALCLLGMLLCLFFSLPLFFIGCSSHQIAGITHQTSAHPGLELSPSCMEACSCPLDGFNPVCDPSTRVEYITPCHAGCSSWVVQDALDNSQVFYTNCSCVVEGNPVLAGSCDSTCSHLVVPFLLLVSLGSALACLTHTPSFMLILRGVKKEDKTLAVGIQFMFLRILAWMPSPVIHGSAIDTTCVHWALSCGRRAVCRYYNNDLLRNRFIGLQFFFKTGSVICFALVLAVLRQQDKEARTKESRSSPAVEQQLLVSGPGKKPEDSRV", "format": "cell-based", "details": "5 μM flavonolignan, 5 minutes; for substrate for OATP2B1: uptake minus wild-type CHO cells"}, "[3]": {"format": "in vivo, Sprague Dawley rats"}, "[4]": {"format": "in vivo, Sprague Dawley rats", "details": "27 hours after pitavastatin gavage"}, "[5]": {"details": "for Cmax: NASH animals, silymarin 500 mg/kg oral gavage, plasma, geometric mean (90% CI)"}, "[6]": {"details": "read-out: average Cmax; NAFLD and HCV patients; ref Fried, 2012; Wah Kheong et al., 2017; cited from earlier work"}, "UGT2B7": {"system": "UGT2B7", "details": "ref Uchaipichat, 2018; cited from earlier work"}, "[7]": {"details": "human, in vivo; cited from earlier work"}, "human OATP1B3 [8]": {"molecular_target": "T1, human OATP1B3", "format": "cell-based"}, "[9]": {"details": "in vivo; cited from earlier work"}, "human OATP1B1 [10]": {"molecular_target": "T2, human OATP1B1", "format": "cell-based"}}, "note": "Where two headings read alike, the source gives them in different places."}
{"compound": "COc1cc([C@H]2Oc3ccc([C@H]4Oc5cc(O)cc(O)c5C(=O)[C@@H]4O)cc3O[C@@H]2CO)ccc1O", "note": "[IA, isosilybin A]", "values": [{"measurement": "substrate for OATP1B3", "setting": "human OATP1B3 [1]", "result": "substrates"}, {"measurement": "substrate for OATP1B1", "setting": "human OATP1B1 [2]", "result": "substrates"}, {"measurement": "substrate for OATP2B1", "setting": "human OATP2B1", "result": "substrates"}]}
{"compound": "COc1cc([C@@H]2Oc3ccc([C@H]4Oc5cc(O)cc(O)c5C(=O)[C@@H]4O)cc3O[C@H]2CO)ccc1O", "note": "[IB, isosilybin B]", "values": [{"measurement": "substrate for OATP1B3", "setting": "human OATP1B3 [1]", "result": "substrates"}, {"measurement": "substrate for OATP1B1", "setting": "human OATP1B1 [2]", "result": "substrates"}, {"measurement": "substrate for OATP2B1", "setting": "human OATP2B1", "result": "substrates"}]}
{"compound": "O=C(O)C[C@H](O)C[C@H](O)/C=C/c1c(C2CC2)nc2ccccc2c1-c1ccc(F)cc1", "note": "[Pitavastatin, Pitavastatin calcium]", "values": [{"measurement": "silymarin effect on pitavastatin Cmax", "setting": "[3]; 40-minute offset between pitavastatin and silymarin administration", "result": "no significant silymarin effect"}, {"measurement": "increase of pitavastatin AUC0-27h by silymarin", "setting": "[3]; NASH silymarin group vs NASH vehicle", "result": 1.8, "unit": "fold"}, {"measurement": "increase of pitavastatin AUC0-27h by NASH alone", "setting": "[3]; NASH vehicle compared to control vehicle", "result": 2.9, "unit": "fold"}, {"measurement": "increase of pitavastatin AUC0-27h by the combination of silymarin and NASH", "setting": "[3]; compared to the control vehicle group", "result": 5.1, "unit": "fold"}, {"measurement": "increase of pitavastatin AUC0-27h by silymarin", "setting": "[3]; control silymarin group vs control vehicle", "result": 1.8, "unit": "fold"}, {"measurement": "increase of pitavastatin Cmax by NASH compared to control", "setting": "[3]; in the absence of silymarin", "result": 3.9, "unit": "fold"}, {"measurement": "increase of pitavastatin Cmax by NASH compared to control", "setting": "[3]; in the presence of silymarin", "result": 2.8, "unit": "fold"}, {"measurement": "liver pitavastatin content, NASH vs control groups", "setting": "[4]", "result": "not different"}, {"measurement": "liver to plasma ratio in the NASH group", "setting": "[4]", "result": "decreased"}]}
{"compound": "COc1cc([C@H]2Oc3cc([C@H]4Oc5cc(O)cc(O)c5C(=O)[C@@H]4O)ccc3O[C@@H]2CO)ccc1O", "note": "[SA, silybin A]", "values": [{"measurement": "plasma AUC of SA relative to that of SC", "setting": "[5]; oral silymarin 500 mg/kg", "result": 110, "unit": "times"}, {"measurement": "substrate for OATP1B3", "setting": "human OATP1B3 [1]", "result": "substrates"}, {"measurement": "substrate for OATP1B1", "setting": "human OATP1B1 [2]", "result": "substrates"}, {"measurement": "substrate for OATP2B1", "setting": "human OATP2B1", "result": "substrates"}, {"measurement": "Cmax", "setting": "[6]", "result": "800 to 4200", "unit": "nM"}]}
{"compound": "COc1cc([C@@H]2Oc3cc([C@H]4Oc5cc(O)cc(O)c5C(=O)[C@@H]4O)ccc3O[C@H]2CO)ccc1O", "note": "[SB, silybin B]", "values": [{"measurement": "substrate for OATP1B3", "setting": "human OATP1B3 [1]", "result": "substrates"}, {"measurement": "substrate for OATP1B1", "setting": "human OATP1B1 [2]", "result": "substrates"}, {"measurement": "substrate for OATP2B1", "setting": "human OATP2B1", "result": "substrates"}]}
{"compound": "COc1cc([C@@H]2Oc3c(O)cc([C@H]4Oc5cc(O)cc(O)c5C(=O)[C@@H]4O)cc3[C@H]2CO)ccc1O", "note": "[SC, silychristin]", "values": [{"measurement": "substrate for OATP1B3", "setting": "human OATP1B3 [1]", "result": "substrates"}, {"measurement": "substrate for OATP1B1", "setting": "human OATP1B1 [2]", "result": "substrates"}, {"measurement": "transport activity of OATP2B1 compared to SA", "setting": "human OATP2B1", "result": "lower transport activity"}, {"measurement": "substrate for OATP2B1", "setting": "human OATP2B1", "result": "substrates"}]}
{"compound": "COc1cc([C@@H]2[C@H]3CO[C@@]4(O)C(=O)[C@@H]2C=C([C@H]2Oc5cc(O)cc(O)c5C(=O)[C@@H]2O)[C@@H]34)ccc1O", "note": "[SD, silydianin]", "values": [{"measurement": "substrate for OATP1B3", "setting": "human OATP1B3 [1]", "result": "substrates"}, {"measurement": "substrate for OATP1B1", "setting": "human OATP1B1 [2]", "result": "substrates"}, {"measurement": "substrate for OATP2B1", "setting": "human OATP2B1", "result": "substrates"}]}
{"compound": "COc1cc(C2Oc3cc([C@H]4Oc5cc(O)cc(O)c5C(=O)[C@@H]4O)ccc3OC2CO)ccc1O", "note": "(stereo partly shown) [silybin]", "values": [{"measurement": "concentrations at which inhibition of UGT2B7 occurs", "setting": "UGT2B7", "result": "0.60 to 1.5", "unit": "mM"}]}
{"compound": "silybin A-4”-O-β-D-glucuronide [S4G]", "values": [{"measurement": "Cmax", "setting": "[5]", "result": 12.6, "unit": "µM"}]}
{"compound": "silybin A-7-O-β-D-glucuronide [S7G]", "values": [{"measurement": "Cmax", "setting": "[5]", "result": 12.6, "unit": "µM"}]}
{"compound": "silymarin", "values": [{"measurement": "adverse events", "setting": "[7]", "result": "no adverse events"}, {"measurement": "leftward shift in IC50 for OATP1B3", "setting": "human OATP1B3 [8]", "result": 1.7, "unit": "fold"}, {"measurement": "safety of the dose", "setting": "[9]", "result": "safe"}, {"measurement": "leftward shift in IC50 for OATP1B1", "setting": "human OATP1B1 [10]", "result": 2.8, "unit": "fold"}]}
